Laboratory results from PubChem BioAssay (NCI).
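Following 48 hours of exposure in 96-well plates, responses at five concentrations were used to interpolate endpoints linearly. The concentration for full growth arrest is given as TGI.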

Key:
Assay in all cases: NCI anticancer screen, dose series, 48 h
OVCAR-4 ovarian = test system: OVCAR-4 ovarian
K-562 leukemia = test system: K-562 leukemia
M14 melanoma = test system: M14 melanoma
SF-268 CNS = test system: SF-268 CNS
NCI-H226 lung = test system: NCI-H226 lung
HCT-15 colon = test system: HCT-15 colon
HT29 colon = test system: HT29 colon
RPMI-8226 leukemia = test system: RPMI-8226 leukemia
SR leukemia = test system: SR leukemia
HOP-62 NSCLC = test system: HOP-62 NSCLC
NCI-H460 lung = test system: NCI-H460 lung
HCC-2998 colon = test system: HCC-2998 colon
SK-OV-3 ovarian = test system: SK-OV-3 ovarian
COLO 205 colon = test system: COLO 205 colon
PC-3 prostate = test system: PC-3 prostate
NCI-H23 lung = test system: NCI-H23 lung
A549 NSCLC = test system: A549 NSCLC
CAKI-1 renal = test system: CAKI-1 renal
SK-MEL-28 melanoma = test system: SK-MEL-28 melanoma
MDA-MB-435 = test system: MDA-MB-435
CCRF-CEM leukemia = test system: CCRF-CEM leukemia
U251 CNS = test system: U251 CNS
SF-539 CNS = test system: SF-539 CNS
MCF7 breast = test system: MCF7 breast
NCI/ADR-RES ovarian = test system: NCI/ADR-RES ovarian
DU-145 prostate = test system: DU-145 prostate
OVCAR-3 ovarian = test system: OVCAR-3 ovarian
SN12C renal = test system: SN12C renal
SF-295 CNS = test system: SF-295 CNS
SK-MEL-5 melanoma = test system: SK-MEL-5 melanoma
HCT-116 colon = test system: HCT-116 colon
EKVX NSCLC = test system: EKVX NSCLC
RXF 393 renal = test system: RXF 393 renal
BT-549 breast = test system: BT-549 breast
UACC-257 melanoma = test system: UACC-257 melanoma
SW-620 colon = test system: SW-620 colon
MOLT-4 leukemia = test system: MOLT-4 leukemia
ACHN renal = test system: ACHN renal
SK-MEL-2 melanoma = test system: SK-MEL-2 melanoma
LOX IMVI melanoma = test system: LOX IMVI melanoma
SNB-75 CNS = test system: SNB-75 CNS
SNB-19 CNS = test system: SNB-19 CNS
UO-31 renal = test system: UO-31 renal
IGROV1 ovarian = test system: IGROV1 ovarian
TK-10 renal = test system: TK-10 renal
OVCAR-5 ovarian = test system: OVCAR-5 ovarian
MDA-MB-231 breast = test system: MDA-MB-231 breast
KM12 colon = test system: KM12 colon
HS 578T breast = test system: HS 578T breast
MDA-N = test system: MDA-N
786-0 renal = test system: 786-0 renal
T-47D breast = test system: T-47D breast
UACC-62 melanoma = test system: UACC-62 melanoma
MALME-3M melanoma = test system: MALME-3M melanoma
HL-60(TB) leukemia = test system: HL-60(TB) leukemia
HOP-92 NSCLC = test system: HOP-92 NSCLC
OVCAR-8 ovarian = test system: OVCAR-8 ovarian
NCI-H522 lung = test system: NCI-H522 lung
A498 renal = test system: A498 renal

Measured: TGI

CCOC(=O)C1(C(=O)OCC)CCCN1C(=O)[C@H](CNC(=O)OC(C)(C)C)NC(=O)OCc1ccccc1
not listed: UACC-62 melanoma | MALME-3M melanoma | HL-60(TB) leukemia | HOP-92 NSCLC | OVCAR-8 ovarian | NCI-H522 lung | A498 renal
> 100 µM: all other assays above

CC(C)(C)c1ccc(OCC(=O)O)c(Cl)c1
not listed: SR leukemia
> 100 µM: all other assays above
